Measured values reported in PubChem BioAssay AID1963434 (Molecular Pharmacology Branch, DTP, NCI, 2024).
“And” between values parts separate entries of the source, which are not always exact repeats. Identical values can stand only once.

Test system: 755483-174-R-J1-PDC complex spheroid growth, percent test/control
Assay: Anticancer human tumor 755483-174-R-J1-PDC patient-derived rhabdomyosarcoma cell line growth inhibition [Asc]
Details: for viability, T/C: stronger effect = lower value; active = viability on the fitted dose curve at most 10% of control; inactive = the rest
Procedure, shortened: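 Complex solid-tumor spheroids incorporating human endothelial and mesenchymal stem cells received single agents or combinations over half-log dilution ranges anchored to clinical Cmax.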

[1] = curve of first compound, second compound 0.1 µM
[2] = curve of first compound, second compound 0.316 µM
[3] = curve of first compound, second compound 1 µM
[4] = second compound 0.1 µM, first compound 0.0316 µM
[5] = second compound 0.1 µM, first compound 0.1 µM
[6] = second compound 0.316 µM, first compound 0.0316 µM
[7] = second compound 0.316 µM, first compound 0.1 µM
[8] = second compound 1 µM, first compound 0.0316 µM
[9] = second compound 1 µM, first compound 0.1 µM
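Also: spheroids exposed to compounds for seven days before readout.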

NC1CCC(NC2CC2c2ccccc2)CC1 (centres undefined) + CCN1C(C(=O)NC23CCC(C(=O)O)(CC2)CC3)C(c2cccc(Cl)c2F)C2(C(=O)Nc3cc(Cl)ccc32)C12CCCCC2
inactive: viability, T/C (second compound 0.03 µM, first compound 0.000316 µM) 93.2% | viability, T/C (second compound 0.03 µM, first compound 0.001 µM) 67.1% | viability, T/C (second compound 0.03 µM, first compound 0.00316 µM) 129% | viability, T/C (second compound 0.03 µM, first compound 0.01 µM) 77.7% | viability, T/C (second compound 0.03 µM, first compound 0.0316 µM) 87% | viability, T/C (second compound 0.03 µM, first compound 0.1 µM) 65.3% | viability, T/C (second compound 0.0949 µM, first compound 0.000316 µM) 90% | viability, T/C (second compound 0.0949 µM, first compound 0.001 µM) 100% | viability, T/C (second compound 0.0949 µM, first compound 0.00316 µM) 93.2% | viability, T/C (second compound 0.0949 µM, first compound 0.01 µM) 96.4% | viability, T/C (second compound 0.0949 µM, first compound 0.0316 µM) 85.1% | viability, T/C (second compound 0.0949 µM, first compound 0.1 µM) 68.8% | viability, T/C (second compound 0.3 µM, first compound 0.000316 µM) 110% | viability, T/C (second compound 0.3 µM, first compound 0.001 µM) 105% | viability, T/C (second compound 0.3 µM, first compound 0.00316 µM) 112% | viability, T/C (second compound 0.3 µM, first compound 0.01 µM) 87.3% | viability, T/C (second compound 0.3 µM, first compound 0.0316 µM) 95.1% | viability, T/C (second compound 0.3 µM, first compound 0.1 µM) 112% | viability, T/C (second compound 0.949 µM, first compound 0.000316 µM) 108% | viability, T/C (second compound 0.949 µM, first compound 0.001 µM) 103% | viability, T/C (second compound 0.949 µM, first compound 0.00316 µM) 92% | viability, T/C (second compound 0.949 µM, first compound 0.01 µM) 98.5% | viability, T/C (second compound 0.949 µM, first compound 0.0316 µM) 78.3% | viability, T/C (second compound 0.949 µM, first compound 0.1 µM) 88.5% | viability, T/C (second compound 3 µM, first compound 0.000316 µM) 92.2% | viability, T/C (second compound 3 µM, first compound 0.001 µM) 94% | viability, T/C (second compound 3 µM, first compound 0.00316 µM) 90.2% | viability, T/C (second compound 3 µM, first compound 0.01 µM) 61.6% | viability, T/C (second compound 3 µM, first compound 0.0316 µM) 86.6% | viability, T/C (second compound 3 µM, first compound 0.1 µM) 88.5%
> 100 nM: IC50 (curve of first compound, second compound 0.03 µM) | IC50 (curve of first compound, second compound 0.0949 µM) | IC50 (curve of first compound, second compound 0.3 µM) | IC50 (curve of first compound, second compound 0.949 µM) | IC50 (curve of first compound, second compound 3 µM)

C=CC(=O)N1CCN(c2nc(=O)n(-c3c(C)ccnc3C(C)C)c3nc(-c4c(O)cccc4F)c(F)cc23)C(C)C1 (centres undefined) + Cc1c(S(C)(=O)=O)c(-c2cc(F)cc(N3CCN(c4ccc(NS(=O)(=O)c5ccc(NC(CCN6CCC(C(=O)OCCCP(=O)(O)O)CC6)CSc6ccccc6)c(S(=O)(=O)C(F)(F)F)c5)cc4)CC3)c2)c(-c2ccc(Cl)cc2)n1C(C)C
< 31.6 nM: IC50 [3] | IC50 (curve of first compound, second compound 10 µM)
> 10000 nM: IC50 [1] | IC50 (curve of first compound, second compound 3.16 µM)
inactive: viability, T/C [4] 79.5% | viability, T/C [5] 46.7% | viability, T/C (second compound 0.1 µM, first compound 0.316 µM) 58.4% | viability, T/C (second compound 0.1 µM, first compound 1 µM) 72.9% | viability, T/C (second compound 0.1 µM, first compound 3.16 µM) 62.3% | viability, T/C (second compound 0.1 µM, first compound 10 µM) 56.2% | viability, T/C [6] 45.4% | viability, T/C [7] 64.7% | viability, T/C (second compound 0.316 µM, first compound 0.316 µM) 44.5% | viability, T/C (second compound 0.316 µM, first compound 1 µM) 57.1% | viability, T/C (second compound 0.316 µM, first compound 3.16 µM) 53.2% | viability, T/C (second compound 0.316 µM, first compound 10 µM) 46.9% | viability, T/C [8] 47.2% | viability, T/C [9] 47.4% | viability, T/C (second compound 1 µM, first compound 0.316 µM) 54.8% | viability, T/C (second compound 1 µM, first compound 1 µM) 49% | viability, T/C (second compound 1 µM, first compound 3.16 µM) 49.3% | viability, T/C (second compound 1 µM, first compound 10 µM) 37.7% | viability, T/C (second compound 3.16 µM, first compound 0.0316 µM) 52.4% | viability, T/C (second compound 3.16 µM, first compound 0.1 µM) 46% | viability, T/C (second compound 3.16 µM, first compound 0.316 µM) 51.9% | viability, T/C (second compound 3.16 µM, first compound 1 µM) 63.2% | viability, T/C (second compound 3.16 µM, first compound 3.16 µM) 48.3% | viability, T/C (second compound 3.16 µM, first compound 10 µM) 48.8% | viability, T/C (second compound 10 µM, first compound 0.0316 µM) 35% | viability, T/C (second compound 10 µM, first compound 0.1 µM) 34.6% | viability, T/C (second compound 10 µM, first compound 0.316 µM) 50.2% | viability, T/C (second compound 10 µM, first compound 1 µM) 42.6% | viability, T/C (second compound 10 µM, first compound 3.16 µM) 32.8% | viability, T/C (second compound 10 µM, first compound 10 µM) 42.7%
5510 nM: IC50 [2]

NC1CCC(NC2CC2c2ccccc2)CC1 (centres undefined)
> 100 nM: IC50 (curve of compound)
inactive: viability, T/C (compound 0.000316 µM) 90.9% and 70.4% and 80.8% | viability, T/C (compound 0.001 µM) 80.2% and 77.2% and 82.2% | viability, T/C (compound 0.00316 µM) 77.8% and 102% and 61.7% | viability, T/C (compound 0.01 µM) 82.8% and 87.8% and 74.4% | viability, T/C (compound 0.0316 µM) 68.1% and 94.5% and 113% | viability, T/C (compound 0.1 µM) 79.2% and 83.4% and 66.6%

NC1CCC(NC2CC2c2ccccc2)CC1 (centres undefined) + CNC(C)C(=O)NC1CN(S(=O)(=O)c2cccc(S(=O)(=O)N3CCC4CCC(C(=O)NC(c5ccccc5)c5ccccc5)N4C(=O)C(NC(=O)C(C)NC)C3)c2)CCC2CCC(C(=O)NC(c3ccccc3)c3ccccc3)N2C1=O
inactive: viability, T/C (second compound 0.01 µM, first compound 0.000316 µM) 27.4% | viability, T/C (second compound 0.01 µM, first compound 0.001 µM) 38.9% | viability, T/C (second compound 0.01 µM, first compound 0.00316 µM) 36.8% | viability, T/C (second compound 0.01 µM, first compound 0.01 µM) 48.5% | viability, T/C (second compound 0.01 µM, first compound 0.0316 µM) 50.3% | viability, T/C (second compound 0.01 µM, first compound 0.1 µM) 45.1% | viability, T/C (second compound 0.0316 µM, first compound 0.000316 µM) 36.4% | viability, T/C (second compound 0.0316 µM, first compound 0.001 µM) 24.9% | viability, T/C (second compound 0.0316 µM, first compound 0.00316 µM) 31.8% | viability, T/C (second compound 0.0316 µM, first compound 0.01 µM) 37.5% | viability, T/C (second compound 0.0316 µM, first compound 0.0316 µM) 28.9% | viability, T/C (second compound 0.0316 µM, first compound 0.1 µM) 30% | viability, T/C (second compound 0.1 µM, first compound 0.000316 µM) 32.6% | viability, T/C (second compound 0.1 µM, first compound 0.001 µM) 27.7% | viability, T/C (second compound 0.1 µM, first compound 0.00316 µM) 33.4% | viability, T/C (second compound 0.1 µM, first compound 0.01 µM) 31.4% | viability, T/C [4] 45.8% | viability, T/C [5] 28.4% | viability, T/C (second compound 0.316 µM, first compound 0.000316 µM) 26.7% | viability, T/C (second compound 0.316 µM, first compound 0.001 µM) 33.6% | viability, T/C (second compound 0.316 µM, first compound 0.00316 µM) 37.8% | viability, T/C (second compound 0.316 µM, first compound 0.01 µM) 29.1% | viability, T/C [6] 21.3% | viability, T/C [7] 29.5% | viability, T/C (second compound 1 µM, first compound 0.000316 µM) 25.9% | viability, T/C (second compound 1 µM, first compound 0.001 µM) 8.86% | viability, T/C (second compound 1 µM, first compound 0.00316 µM) 23.5% | viability, T/C (second compound 1 µM, first compound 0.01 µM) 20% | viability, T/C [8] 21.7% | viability, T/C [9] 25.7%
< 0.316 nM: IC50 (curve of first compound, second compound 0.01 µM) | IC50 (curve of first compound, second compound 0.0316 µM) | IC50 [1] | IC50 [2] | IC50 [3]

C=CC(=O)N1CCN(c2nc(=O)n(-c3c(C)ccnc3C(C)C)c3nc(-c4c(O)cccc4F)c(F)cc23)C(C)C1 (centres undefined)
> 10000 nM: IC50 (curve of compound)
inactive: viability, T/C (compound 0.0316 µM) 99.7% and 81.3% and 102% | viability, T/C (compound 0.1 µM) 98.4% and 72.6% and 109% | viability, T/C (compound 0.316 µM) 115% and 63% and 100% | viability, T/C (compound 1 µM) 94.8% and 72.7% and 121% | viability, T/C (compound 3.16 µM) 117% and 78.5% and 88.8% | viability, T/C (compound 10 µM) 74.8% and 69.6% and 85.6%
